Assay results taken from patent US20180071317A1, “USE OF AGENTS THAT ALTER THE PERITUMORAL ENVIRONMENT FOR THE TREATMENT OF CANCER” (SERVICIO ANDALUZ DE SALUD, priority 2011, published 2018).

Key:
[1] = tested on: fibroblasts (PHF) cells co-cultured with human T lymphoma tumor (DERL-7); experiment: Marker expression (IHC) in PHF co-cultured with DERL-7 tumor cells; format: cell-based; settings: PHF co-cultured with DERL-7 + SP + NK1 antagonist
Method: All cultures were maintained 48 hours, following which the same cells were included in paraffin blocks for subsequent analysis of the expression of different markers by immunohistochemistry (see Example 1). The primary antibodies used to perform immunohistochemical assays and their concentration are detailed in Example 2. All experiments were carried out sixfold. Analyzed markers in fibroblast cells (stromal cells) were: TGF-α, TGF-β1, TGF-β2, TGF-β3, SPARC, MMP-3, MMP-7, MMP-9, MMP-11, MMP-13 and MMP-14.

[2] = tested on: co-cultures of tumor cells-endothelial cells (C-12210); experiment: Inhibition/survival in co-cultures of primary human tumor cells and endothelial cells; format: cell-based; settings: survival in reference to control, SP 1 μM, Aprepitant 1 μM
Method: To check that the interaction of primary tumor cells extracted directly from human with human vascular endothelial cells, promotes the survival of both cell types, co-cultures were performed microvascular endothelial cells from juvenile foreskins (PromoCell GmbH, Sickingenstraβe 63/65, D-69126 Heidelberg, Germany; reference C-12210) with tumor cells obtained directly from primary human tumors.
A total of 6 wells containing tumor cells were used as control for survival. Another 6 wells containing tumor cells were cultured with addition of endothelial cells.
Subsequently, cells were embedded in paraffin for analysis by immunohistochemistry. In order to identify the different cell types and quantity of them [They were labelled with primary antibodies specific for human endothelial cells (anti-CD31), carcinoma cells (Anti-Cytokeratins Spread Spectrum), glioma (Anti-glial fibrillary acidic protein), fibrosarcoma and malignant fibrous histiocytoma (Anti-Smooth Muscle Actin), Ewing sarcoma (Anti-CD99), Melanoma (Anti-HMB45), leukemias and lymphomas (Anti-Common Antigen Leucitario) and myeloma (anti CD 138). All antibodies are distributed by Dako and were used at the same concentration which is supplied (supplied pre-diluted—“ready to use”).

[3] = tested on: fibroblasts (PHF) co-cultivated with tumor cell carcinoma of urinary bladder (5637); experiment: Marker expression (IHC) in PHF co-cultured with 5637 tumor cells; format: cell-based, human; settings: co-culture with 5637; SP 1 μM + antagonist 1 μM; 48 h
Method: (§1) All cultures were maintained 48 hours, following which the same cells were included in paraffin blocks for subsequent analysis of the expression of different markers by immunohistochemistry (see Example 1). […] All experiments were carried out sixfold. Analyzed markers in fibroblast cells (stromal cells) were: TGF-α, TGF-β1, TGF-β2, TGF-β3, SPARC, MMP-3, MMP-7, MMP-9, MMP-11, MMP-13 and MMP-14.

[4] = tested on: fibroblasts (PHF) co-cultured with tumor cells, ovarian carcinoma (EFO-27); experiment: Marker expression (IHC) in PHF co-cultured with EFO-27 tumor cells; format: cell-based, human; settings: co-culture with EFO-27; SP 1 μM + antagonist 1 μM; 48 h;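 further: values are the percentage of PHF fibroblasts positive for each marker, cultured in fresh plasma from a healthy human donor, each experiment run in six replicates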
Method: as §1

[5] = tested on: fibroblast cells in co-culture with cells isolated from primary human tumors; experiment: Marker expression (IHC) in fibroblasts co-cultured with primary human tumor cells (colon, pancreatic, lung carcinoma, glioma, multiple myeloma); format: cell-based
Method: To check that the interaction of the human primary tumor cells with stromal cells, [human fibroblasts,] stimulates the secretion of substances of importance for survival and tumor progression, co-cultures were performed using stromal cells with human fibroblast-tumor cells obtained directly from primary human tumors.
On this occasion, in order to identify, using immunohistochemical techniques, the secretion of substances of importance for the survival and progression of tumors, the following antibodies were used: TGF-α (SAB4502953), TGF-β1 (SAB4502954), TGF-β2 (SAB4502956), TGF-β3 (SAB4502957), SPARC (HPA002989), MMP-3 (HPA007875), MMP-7 (SAB4501894), MMP-9 (SAB4501896), MMP-11 (SAB4501898) MMP-13 (SAB4501900) and MMP-14 (SAB4501901) using specific antibodies against them. All antibodies used were rabbit polyclonal antibodies obtained from Sigma-Aldrich and were used at a concentration of 1/1000 to achieve these immunohistochemical studies. All experiments were carried out sixfold.

[6] = tested on: human primary macrophages (PHM); experiment: Marker expression (immunohistochemistry) in human primary macrophages with SP alone or with NK1 antagonists; format: cell-based; settings: SP 1 μM + antagonist 1 μM; 48 h
Method: In this sense the next step was to analyze the effect exerted by the treatment with non-peptide NK1 antagonists in human primary macrophages (PHM) obtained and purified from pleural effusion samples obtained from men with chronic age range between 45 and 55 years. Briefly, the pleural fluid from chronic (rich in macrophages) was centrifuged.
After 48 hours of culture, cells were harvested and cellular paraffin blocks were constructed for immunohistochemical analysis (see Example 1). To analyze the expression of markers EGF, MMP-9, VEGF and IL-8 antibodies were used as follows: EGF (rabbit monoclonal antibody, anti-EGF; 07-1432. Merck-Millipore), MMP-9 (polyclonal rabbit anti-MMP-9: SAB4501896, Sigma-Aldrich), VEGF (mouse monoclonal anti-VEGF, GF25-100UG, Merck-Millipore) and TNF-α (mouse monoclonal anti-TNF-α, number MAB 1021 catalogue, obtained from Merck-Millipore). All of these antibodies were used at a concentration of 1/1000. System for labelling with a secondary antibody specific for the primary antibodies obtained from rabbit or mouse was used, as was necessary in each case, both the Envision (Dako). All experiments were carried out sixfold.

[7] = tested on: fibroblasts of tumors produced by lung carcinoma non small cell human (HCC-44) cells; experiment: Marker expression (IHC) in fibroblasts of tumor or peritumoral area, mouse model, HCC-44; format: in vivo; settings: HCC-44 tumors in mice, 30 mg/kg/day oral, 7 days
Method: Subsequently, the expression in fibroblasts tumoral and peritumoral area of molecular markers associated with progression and maintenance of tumors: TGF-α, TGF-β1, TGF-β2, TGF-β3, MMP-7, MMP-11, MMP-14 were analyzed by immunohistochemistry.
Were injected with 2×10^7 cells tumors (corresponding, in each case to each of the tumor types as specified in Table 9) in 200 of PBS subcutaneously μl. […] Mice were randomized into two groups when the tumors reached a volume of 75 mm^3 One group was treated with non-peptide receptor antagonists NK1 and the other with placebo 200μ1. […] Tumors and samples of non-neoplastic stromal areas remote from the tumor were halved, formalin fixed (4%) and then were included in paraffin blocks for analysis by immunohistochemistry.
The expression on fibroblast cells obtained in the animal model was analyzed by immunohistochemistry, of the above markers: TGF-α, TGF-β1, TGF-β2, TGF-β3, MMP-7, MMP-1 1, MMP-14MP-14. […] This process was realized in mice treated with non-peptide antagonists of NK1 receptor and in untreated animals (control).

[8] = Carcinoma of lung, (Small cell carcinoma in Table 36)
[9] = Carcinoma of lung, Non Small Cell Carcinoma in Table 36
[10] = Carcinoma of thyroid, (Follicular Carcinoma in Table 36)
[11] = Carcinoma of thyroid, (Papillary Carcinoma in Table 36)
[12] = Primary tumor cells (colon carcinoma) co-cultured + fibroblast + SP (1 μM) + NK1 antagonist 1 μM
[13] = co-culture with cells isolated from glioma, SP 1 μM + antagonist 1 μM
[14] = co-culture with cells isolated from lung cancer, SP 1 μM + antagonist 1 μM
[15] = co-culture with cells isolated from multiple myeloma, SP 1 μM + antagonist 1 μM
[16] = co-culture with cells isolated from pancreatic carcinoma, SP 1 μM + antagonist 1 μM

C[C@@H](O[C@H]1OCCN(Cc2n[nH]c(=O)[nH]2)[C@H]1c1ccc(F)cc1)c1cc(C(F)(F)F)cc(C(F)(F)F)c1 [Aprepitant]
cells expressing MMP-3 [1]: 0%
cells expressing MMP-7 [1]: 0%
cells expressing MMP-9 [1]: 0%
cells expressing MMP-11 [1]: 0%
cells expressing MMP-13 [1]: 0%
cells expressing MMP-14 [1]: 0%
cells expressing SPARC [1]: 0%
cells expressing TGF-α [1]: 0%
cells expressing TGF-β1 [1]: 0%
cells expressing TGF-β2 [1]: 0%
cells expressing TGF-β3 [1]: 0%
Endothelial cells co-cultured with tumor cells + SP + Aprepitant ([2]; Carcinoma of Colon): 57 ± 3%
Tumor cells co-cultured with endothelial cells + SP + Aprepitant ([2]; Carcinoma of Colon): 61 ± 3%
Endothelial cells co-cultured with tumor cells + SP + Aprepitant ([2]; Carcinoma of Pancreas): 52 ± 4%
Tumor cells co-cultured with endothelial cells + SP + Aprepitant ([2]; Carcinoma of Pancreas): 46 ± 6%
Endothelial cells co-cultured with tumor cells + SP + Aprepitant ([2]; Carcinoma of breast): 56 ± 6%
Tumor cells co-cultured with endothelial cells + SP + Aprepitant ([2]; Carcinoma of breast): 56 ± 3%
Endothelial cells co-cultured with tumor cells + SP + Aprepitant ([2]; Carcinoma of cervix): 45 ± 3%
Tumor cells co-cultured with endothelial cells + SP + Aprepitant ([2]; Carcinoma of cervix): 46 ± 3%
Endothelial cells co-cultured with tumor cells + SP + Aprepitant ([2]; Carcinoma of endometrial): 57 ± 4%
Tumor cells co-cultured with endothelial cells + SP + Aprepitant ([2]; Carcinoma of endometrial): 49 ± 3%
Endothelial cells co-cultured with tumor cells + SP + Aprepitant [2, 8]: 46 ± 7%
Tumor cells co-cultured with endothelial cells + SP + Aprepitant [2, 8]: 63 ± 3%
Endothelial cells co-cultured with tumor cells + SP + Aprepitant [2, 9]: 43 ± 4%
Tumor cells co-cultured with endothelial cells + SP + Aprepitant [2, 9]: 65 ± 4%
Endothelial cells co-cultured with tumor cells + SP + Aprepitant ([2]; Carcinoma of ovarian): 49 ± 5%
Tumor cells co-cultured with endothelial cells + SP + Aprepitant ([2]; Carcinoma of ovarian): 54 ± 4%
Endothelial cells co-cultured with tumor cells + SP + Aprepitant ([2]; Carcinoma of prostate): 54 ± 4%
Tumor cells co-cultured with endothelial cells + SP + Aprepitant ([2]; Carcinoma of prostate): 47 ± 5%
Endothelial cells co-cultured with tumor cells + SP + Aprepitant ([2]; Carcinoma of stomach): 65 ± 2%
Tumor cells co-cultured with endothelial cells + SP + Aprepitant ([2]; Carcinoma of stomach): 54 ± 5%
Endothelial cells co-cultured with tumor cells + SP + Aprepitant [2, 10]: 45 ± 3%
Tumor cells co-cultured with endothelial cells + SP + Aprepitant [2, 10]: 46 ± 6%
Endothelial cells co-cultured with tumor cells + SP + Aprepitant [2, 11]: 56 ± 6%
Tumor cells co-cultured with endothelial cells + SP + Aprepitant [2, 11]: 56 ± 4%
Endothelial cells co-cultured with tumor cells + SP + Aprepitant ([2]; Fibrosarcoma): 45 ± 6%
Tumor cells co-cultured with endothelial cells + SP + Aprepitant ([2]; Fibrosarcoma): 55 ± 6%
Endothelial cells co-cultured with tumor cells + SP + Aprepitant ([2]; Glioma): 56 ± 5%
Tumor cells co-cultured with endothelial cells + SP + Aprepitant ([2]; Glioma): 49 ± 4%
Endothelial cells co-cultured with tumor cells + SP + Aprepitant ([2]; Hodgkin's Lymphoma): 48 ± 4%
Tumor cells co-cultured with endothelial cells + SP + Aprepitant ([2]; Hodgkin's Lymphoma): 74 ± 6%
Endothelial cells co-cultured with tumor cells + SP + Aprepitant ([2]; Leukemia B): 46 ± 5%
Tumor cells co-cultured with endothelial cells + SP + Aprepitant ([2]; Leukemia B): 54 ± 6%
Endothelial cells co-cultured with tumor cells + SP + Aprepitant ([2]; Leukemia T): 56 ± 6%
Tumor cells co-cultured with endothelial cells + SP + Aprepitant ([2]; Leukemia T): 56 ± 5%
Endothelial cells co-cultured with tumor cells + SP + Aprepitant ([2]; Malignant fibrous histiocytoma): 56 ± 6%
Tumor cells co-cultured with endothelial cells + SP + Aprepitant ([2]; Malignant fibrous histiocytoma): 44 ± 5%
Endothelial cells co-cultured with tumor cells + SP + Aprepitant ([2]; Melanoma): 56 ± 6%
Tumor cells co-cultured with endothelial cells + SP + Aprepitant ([2]; Melanoma): 46 ± 5%
Endothelial cells co-cultured with tumor cells + SP + Aprepitant ([2]; Myeloma): 54 ± 8%
Tumor cells co-cultured with endothelial cells + SP + Aprepitant ([2]; Myeloma): 64 ± 3%
Endothelial cells co-cultured with tumor cells + SP + Aprepitant ([2]; Neuroblastoma): 49 ± 4%
Tumor cells co-cultured with endothelial cells + SP + Aprepitant ([2]; Neuroblastoma): 55 ± 6%
Endothelial cells co-cultured with tumor cells + SP + Aprepitant ([2]; Non-Hodgkin's Lymphoma B): 67 ± 5%
Tumor cells co-cultured with endothelial cells + SP + Aprepitant ([2]; Non-Hodgkin's Lymphoma B): 49 ± 6%
Endothelial cells co-cultured with tumor cells + SP + Aprepitant ([2]; Non-Hodgkin's Lymphoma T): 49 ± 4%
Tumor cells co-cultured with endothelial cells + SP + Aprepitant ([2]; Non-Hodgkin's Lymphoma T): 83 ± 8%
Endothelial cells co-cultured with tumor cells + SP + Aprepitant ([2]; Renal carcinoma): 56 ± 2%
Tumor cells co-cultured with endothelial cells + SP + Aprepitant ([2]; Renal carcinoma): 53 ± 3%
Endothelial cells co-cultured with tumor cells + SP + Aprepitant ([2]; Sarcoma of Ewing): 45 ± 5%
Tumor cells co-cultured with endothelial cells + SP + Aprepitant ([2]; Sarcoma of Ewing): 45 ± 7%
PHF cells expressing MMP-3 [3]: 0%
PHF cells expressing MMP-7 [3]: 0%
PHF cells expressing MMP-9 [3]: 0%
PHF cells expressing MMP-11 [3]: 0%
PHF cells expressing MMP-13 [3]: 0%
PHF cells expressing MMP-14 [3]: 0%
PHF cells expressing SPARC [3]: 0%
PHF cells expressing TGF-α [3]: 0%
PHF cells expressing TGF-β1 [3]: 0%
PHF cells expressing TGF-β2 [3]: 0%
PHF cells expressing TGF-β3 [3]: 0%
PHF cells expressing MMP-3 [4]: 0%
PHF cells expressing MMP-7 [4]: 0%
PHF cells expressing MMP-9 [4]: 0%
PHF cells expressing MMP-11 [4]: 0%
PHF cells expressing MMP-13 [4]: 0%
PHF cells expressing MMP-14 [4]: 0%
PHF cells expressing SPARC [4]: 0%
PHF cells expressing TGF-α [4]: 0%
PHF cells expressing TGF-β1 [4]: 0%
PHF cells expressing TGF-β2 [4]: 0%
PHF cells expressing TGF-β3 [4]: 0%
Percentage of fibroblast cells which expressed MMP-3 [5, 12]: 0%
Percentage of fibroblast cells which expressed MMP-7 [5, 12]: 0%
Percentage of fibroblast cells which expressed MMP-9 [5, 12]: 0%
Percentage of fibroblast cells which expressed MMP-11 [5, 12]: 0%
Percentage of fibroblast cells which expressed MMP-13 [5, 12]: 0%
Percentage of fibroblast cells which expressed MMP-14 [5, 12]: 0%
Percentage of fibroblast cells which expressed SPARC [5, 12]: 0%
Percentage of fibroblast cells which expressed TGFα [5, 12]: 0%
Percentage of fibroblast cells which expressed TGFβ1 [5, 12]: 0%
Percentage of fibroblast cells which expressed TGFβ2 [5, 12]: 0%
Percentage of fibroblast cells which expressed TGFβ3 [5, 12]: 0%
Percentage of fibroblast cells which expressed MMP-3 [5, 13]: 0%
Percentage of fibroblast cells which expressed MMP-7 [5, 13]: 0%
Percentage of fibroblast cells which expressed MMP-9 [5, 13]: 0%
Percentage of fibroblast cells which expressed MMP-11 [5, 13]: 0%
Percentage of fibroblast cells which expressed MMP-13 [5, 13]: 0%
Percentage of fibroblast cells which expressed MMP-14 [5, 13]: 0%
Percentage of fibroblast cells which expressed SPARC [5, 13]: 0%
Percentage of fibroblast cells which expressed TGFα [5, 13]: 0%
Percentage of fibroblast cells which expressed TGFβ1 [5, 13]: 0%
Percentage of fibroblast cells which expressed TGFβ2 [5, 13]: 0%
Percentage of fibroblast cells which expressed TGFβ3 [5, 13]: 0%
Percentage of fibroblast cells which expressed MMP-3 [5, 14]: 0%
Percentage of fibroblast cells which expressed MMP-7 [5, 14]: 0%
Percentage of fibroblast cells which expressed MMP-9 [5, 14]: 0%
Percentage of fibroblast cells which expressed MMP-11 [5, 14]: 0%
Percentage of fibroblast cells which expressed MMP-13 [5, 14]: 0%
Percentage of fibroblast cells which expressed MMP-14 [5, 14]: 0%
Percentage of fibroblast cells which expressed SPARC [5, 14]: 0%
Percentage of fibroblast cells which expressed TGFα [5, 14]: 0%
Percentage of fibroblast cells which expressed TGFβ1 [5, 14]: 0%
Percentage of fibroblast cells which expressed TGFβ2 [5, 14]: 0%
Percentage of fibroblast cells which expressed TGFβ3 [5, 14]: 0%
Percentage of fibroblast cells which expressed MMP-3 [5, 15]: 0%
Percentage of fibroblast cells which expressed MMP-7 [5, 15]: 0%
Percentage of fibroblast cells which expressed MMP-9 [5, 15]: 0%
Percentage of fibroblast cells which expressed MMP-11 [5, 15]: 0%
Percentage of fibroblast cells which expressed MMP-13 [5, 15]: 0%
Percentage of fibroblast cells which expressed MMP-14 [5, 15]: 0%
Percentage of fibroblast cells which expressed SPARC [5, 15]: 0%
Percentage of fibroblast cells which expressed TGFα [5, 15]: 0%
Percentage of fibroblast cells which expressed TGFβ1 [5, 15]: 0%
Percentage of fibroblast cells which expressed TGFβ2 [5, 15]: 0%
Percentage of fibroblast cells which expressed TGFβ3 [5, 15]: 0%
Percentage of fibroblast cells which expressed MMP-3 [5, 16]: 0%
Percentage of fibroblast cells which expressed MMP-7 [5, 16]: 0%
Percentage of fibroblast cells which expressed MMP-9 [5, 16]: 0%
Percentage of fibroblast cells which expressed MMP-11 [5, 16]: 0%
Percentage of fibroblast cells which expressed MMP-13 [5, 16]: 0%
Percentage of fibroblast cells which expressed MMP-14 [5, 16]: 0%
Percentage of fibroblast cells which expressed SPARC [5, 16]: 0%
Percentage of fibroblast cells which expressed TGFα [5, 16]: 0%
Percentage of fibroblast cells which expressed TGFβ1 [5, 16]: 0%
Percentage of fibroblast cells which expressed TGFβ2 [5, 16]: 0%
Percentage of fibroblast cells which expressed TGFβ3 [5, 16]: 0%
macrophages expressing EGF [6]: 0%
macrophages expressing MMP-9 [6]: 0%
macrophages expressing VEGF [6]: 0%
fibroblasts expressing MMP-7 [7]: 0%
fibroblasts expressing MMP-11 [7]: 0%
fibroblasts expressing MMP-14 [7]: 0%
fibroblasts expressing TGF-α [7]: 0%
fibroblasts expressing TGF-β 1 [7]: 0%
fibroblasts expressing TGF-β 2 [7]: 0%
fibroblasts expressing TGF-β 3 [7]: 0%
